≈ marks a conversion by molar mass, not a printed value.
Key:
MCF-7 (breast carcinoma) = assay: MTS cell viability assay, MCF-7; format: cell-based; settings: Homo sapiens, MCF7, 72 h
Procedure: (§1) All treatments were performed in triplicate. […] Cells were incubated at 37° C. for 72 h.

SK-MEL-2 (melanoma) = assay: MTS cell viability assay, SK-MEL-2; settings: Homo sapiens, SK-MEL-2, 72 h, read-out: IC50 SK-MEL-2
Procedure: (§2) Cells were plated, the evening before treatment, for each treatment on 96-well plates (1×10^4 cells/well) in 100 μL volume per well. Drug solutions were prepared by diluting each test compound in DSMO (10 mM) with the appropriate cell growth media for each individual cell line, or in “Universal Media” if several cell lines were to be assayed in parallel, immediately prior to cell treatment. Universal Media consisted of 5 mL sodium pyruvate (100×liquid stock, CellGro), 5 mL glucose (100×, 45% liquid stock, CellGro), 5 mL Penicillin/Streptomycin (100×liquid stock, CellGro), 10 mL sodium bicarbonate (50×liquid stock, CellGro), 25 mL Fetal Calf Serum, 1.25 mL insulin (4 mg/mL, Gibco) and 449 mL RPMI media with 2 mM glutamine for a total volume of 500 mL. Cells were treated by aspirating media from each well and adding 80 μL of each drug solution to the attached cells. All treatments were performed in triplicate. Growth media (80 μL) were added to 3 blank wells (no cells) to measure background from the growth media Growth media alone (no DMSO or test compond) was added to 2 wells containing cells to measure the baseline MTS activity and vehicle (DMSO) control solutions were also included to monitor basal toxicity from DMSO. Cells were incubated at 37° C. for 72 h. MTS reagent (per 96-well plate) were prepared by combining 2 mL of MTS working solution (Cell Titer AQueous Non-Radioactive Cell Proliferation Assay, Promega, cat#G1112), 100 μL of 0.92 mg/mL phenazine methosulfate/Dulbecco's PBS and 2.1 mL growth media. MTS reagent (40 μL) were added to each well and incubated at 37° C. for 1.5 to 4 h. Plates were gently shaken by hand until solution in each well appeared homogenous. Absorbances at 490 nm were measured on a plate reader at multiple time points following the addition of MTS reagent for each plate. Triplicate absorbance (490 nm) measurements were averaged following background (no cell) subtraction for each drug concentration. Percent Cell Viability was calculated for each drug concentration using the following equation: {[Absorbances(drug treated)]/[Absorbances(DMSO treated)]}×100%
(§3) Percent viability (y-axis) was plotted against drug concentration (x-axis) and the resulting graph was used to determine the 50% inhibitory concentration (IC50) for each drug.

A-375 (melanoma) = assay: MTS cell viability assay, A-375; format: cell-based; settings: Homo sapiens, 72 h
Procedure: as §1

HT-29 (colon carcinoma) = assay: MTS cell viability assay, HT-29; format: cell-based; settings: Homo sapiens, 72 h
Procedure: as §1

Daoy (glioblastoma) = assay: MTS cell viability assay, Daoy; settings: for IC50: Homo sapiens, Daoy, 72 h, read-out: IC50 Daoy
Procedure: as §2, §3

[1] = system: OVCAR-3 (ovarian carcinoma); assay: MTS cell viability assay, OVCAR-3; format: cell-based; settings: Homo sapiens, 72 h
Procedure: as §1

LN-229 (glioblastoma) = assay: MTS cell viability assay, LN-229; format: cell-based; settings: Homo sapiens, 72 h
Procedure: as §1

Row | SMILES | IC50 (MCF-7 (breast carcinoma)) [µg/mL] | IC50 (SK-MEL-2 (melanoma)) [µg/mL] | IC50 (A-375 (melanoma)) [µg/mL] | IC50 (HT-29 (colon carcinoma)) [µg/mL] | IC50 (Daoy (glioblastoma)) [µg/mL] | IC50 [1] [µg/mL] | IC50 (LN-229 (glioblastoma)) [µg/mL] | selectivity of cytotoxicity for Daoy (in words) (Daoy (glioblastoma); MTS assay, Daoy versus other cell lines)
1 | C=C(C)[C@@H]1CC[C@]2(C(=O)O)CC[C@]3(C)[C@H](CC[C@@H]4[C@@]5(C)CC[C@H](O)C(C)(C)[C@@H]5CC[C@]43C)[C@@H]12 [Compound 1, (1R,3aS,5aR,5bR,7aR,9S,11aR, 11bR,13aR,13bR)-9-hydroxy-5a,5b,8,8,11a-pentamethyl-1-(prop-1-en-2-yl)icosahydro-1H-cyclopenta[a]chrysene-3a-carboxylic acid, reference compound] | 50 (≈ 109 µM) | 33.2 ± 3.77 (≈ 72.7 µM) | 51 (≈ 112 µM) | 37 (≈ 81 µM) | 31.3 ± 2.28 (≈ 68.5 µM) | 59 ± 4.58 (≈ 129 µM) | 61 (≈ 134 µM) | 
2 | C=C(C)[C@@H]1CC[C@]2(COC(=O)CBr)CC[C@]3(C)[C@H](CC[C@@H]4[C@@]5(C)CCC(=O)C(C)(C)[C@@H]5CC[C@]43C)[C@@H]12 [Compound 18, ((1R,3aS,5aR,5bR,7aR,11aR,11bR,13aR,13bR)-5a,5b,8,8,11a-pentamethyl-9-oxo-1-(prop-1-en-2-yl)icosahydro-1H-cyclopenta[a]chrysen-3a-yl)methyl 2-bromoacetate] | 48 (≈ 85.5 µM) | 42 (≈ 74.8 µM) | 14 (≈ 24.9 µM) | 36 (≈ 64.1 µM) | < 2 | 8 (≈ 14.2 µM) |  | 
3 | C=C(C)[C@@H]1CC[C@]2(COC(=O)COC)CC[C@]3(C)[C@H](CC[C@@H]4[C@@]5(C)CC[C@H](OC(C)=O)C(C)(C)[C@@H]5CC[C@]43C)[C@@H]12 [Compound 19, ((1R,3aS,5aR,5bR,7aR,9S,11aR,11bR,13aR,13b R)-9-acetoxy-5a,5b,8,8,11a-pentamethyl-1-(prop-1-en-2-yl)icosahydro-1H-cyclopenta[a]chrysen-3a-yl)methyl 2-methoxyacetate] | > 75 | 6 (≈ 10.8 µM) | 7 (≈ 12.6 µM) | > 75 | 7 (≈ 12.6 µM) | > 75 | > 75 | 
4 | C=C(C)[C@@H]1CC[C@]2(COC(=O)COCC)CC[C@]3(C)[C@H](CC[C@@H]4[C@@]5(C)C=C(C#N)C(=O)C(C)(C)[C@@H]5CC[C@]43C)[C@@H]12 [Compound 40, ((1R,3aS,5aR,5bR,7aR,11aR,11bR,13aR,13bR)-10-cyano-5a,5b,8,8,11a-pentamethyl-9-oxo-1-(prop-1-en-2-yl)-2,3,3a,4,5,5a,5b,6,7,7a,8,9,11a,11b,12,13,13a,13b-octadecahydro-1H-cyclopenta[a]chrysen-3a-yl)methyl 2-ethoxyacetate] | 30 (≈ 54.6 µM) | > 10 | 6 (≈ 10.9 µM) | 10 (≈ 18.2 µM) | 4 (≈ 7.28 µM) | 10 (≈ 18.2 µM) | 28 (≈ 50.9 µM) | 
5 | CC(C)[C@@H]1CC[C@]2(CO)CC[C@]3(C)[C@H](CC[C@@H]4[C@@]5(C)Cc6cnoc6C(C)(C)[C@@H]5CC[C@]43C)[C@@H]12 [Compound 49, [(1S,3aS,5aR,5bR,7aR,12aR,12bR,14aR,14bR)-1-isopropyl-5a,5b,8,8,12a-pentamethyl-1,2,3,4,5,5a,5b,6,7,7a,8,12,12a,12b,13,14,14a, 14b-octadecahydro-3aH-cyclopenta[7,8]chryseno[3,2-d]isoxazol-3a-yl]methanol] | > 75 | 6 (≈ 12.8 µM) | 10 (≈ 21.4 µM) | 50 to 75 (≈ 107 to 160 µM) | 4 (≈ 8.55 µM) | 50 to 75 (≈ 107 to 160 µM) | > 75 | 
6 | CC(C)[C@@H]1CC[C@]2(COC(=O)CBr)CC[C@]3(C)[C@H](CC[C@@H]4[C@@]5(C)Cc6cnoc6C(C)(C)[C@@H]5CC[C@]43C)[C@@H]12 [Compound 50, [(1S,3aS,5aR,5bR,7aR,12aR,12bR,14aR,14bR)-1-isopropyl-5a,5b,8,8,12a-pentamethyl-1,2,3,4,5,5a,5b,6,7,7a,8,12,12a,12b,13,14,14a, 14b-octadecahydro-3aH-cyclopenta[7,8]chryseno[3,2-d]isoxazol-3a-yl]methyl bromoacetate] | 50 (≈ 84.9 µM) | > 75 | 25 (≈ 42.5 µM) | 40 (≈ 67.9 µM) | 4 (≈ 6.79 µM) | 42 (≈ 71.3 µM) | 48 (≈ 81.5 µM) | 
7 | CC(C)[C@@H]1CC[C@]2(CO)CC[C@]3(C)[C@H](CC[C@@H]4[C@@]5(C)C=C(C#N)C(=O)C(C)(C)[C@@H]5CC[C@]43C)[C@@H]12 [Compound 55, (1S,3aS,5aR,5bR,7aR,11aR,11bR,13aR,13bR)-3a-(hydroxymethyl)-1-isopropyl-5a,5b,8,8,11a-pentamethyl-9-oxo-2,3,3a,4,5,5a,5b,6,7,7a,8,9,11a,11b,12,13,13a,13b-octadecahydro-1H-cyclopenta[a]chrysene-10-carbonitrile] | > 75 |  | 4 (≈ 8.59 µM) | 7 (≈ 15 µM) |  | 8 (≈ 17.2 µM) |  | 
8 | C=C(C)[C@@H]1CC[C@]2(C=O)CC[C@]3(C)[C@H](CC[C@@H]4[C@@]5(C)CCC(=O)C(C)(C)[C@@H]5CC[C@]43C)[C@@H]12 [Compound 66, (1R,3aS,5aR,5bR,7aR,11aR,11bR,13aR,13bR)-5a,5b,8,8,11a-pentamethyl-9-oxo-1-(prop-1-en-2-yl)icosahydro-1H-cyclopenta[a]chrysene-3a-carbaldehyde] | 38 (≈ 86.6 µM) | 28 (≈ 63.8 µM) | 15 (≈ 34.2 µM) | 21 (≈ 47.9 µM) | 6 (≈ 13.7 µM) | 20 (≈ 45.6 µM) | 35 (≈ 79.8 µM) | selective toxicity towards Daoy
9 | C=C(C)[C@@H]1CC[C@]2(CNCCCl)CC[C@]3(C)[C@H](CC[C@@H]4[C@@]5(C)CC[C@H](O)C(C)(C)[C@@H]5CC[C@]43C)[C@@H]12 [Compound 70, (1R,3aS,5aR,5bR,7aR,9S,11aR,11bR,13aR,13bR)-3a-((2-chloroethylamino)methyl)-5a,5b,8,8,11a-pentamethyl-1-(prop-1-en-2-yl)icosahydro-1H-cyclopenta[a]chrysen-9-ol] | 54 (≈ 107 µM) | 35 (≈ 69.4 µM) | 20 (≈ 39.7 µM) | 19 (≈ 37.7 µM) | < 2 | 10 (≈ 19.8 µM) |  | 
10 | C=C(C)[C@@H]1CC[C@]2(C(=O)O)CC[C@]3(C)[C@H](CC[C@@H]4[C@@]5(C)CCC(NCCO)C(C)(C)[C@@H]5CC[C@]43C)[C@@H]12 (stereo partly drawn) [Compound 77, (1R,3aS,5aR,5bR,7aR,11aR,11bR,13aR,13bR)-9-(2-hydroxyethylamino)-5a,5b,8,8,11a-pentamethyl-1-(prop-1-en-2-yl)icosahydro-1H-cyclopenta[a]chrysene-3a-carboxylic acid] | 35 (≈ 70 µM) | 36 (≈ 72 µM) | 14 (≈ 28 µM) | 16 (≈ 32 µM) | < 2 | 28 (≈ 56 µM) |  | 
11 | CC(C)[C@@H]1CC[C@]2(C(=O)O)CC[C@]3(C)[C@H](CC[C@@H]4[C@@]5(C)CCC(=O)C(C)(C)[C@@H]5CC[C@]43C)[C@@H]12 [Compound 87, (1S,3aS,5aR,5bR,7aR,11aR,11bR,13aR,13bR)-1-isopropyl-5a,5b,8,8,11a-pentamethyl-9-oxoicosahydro-1H-cyclopenta[a]chrysene-3a-carboxylic acid] | 38 (≈ 83.2 µM) | 16 (≈ 35 µM) | 22 (≈ 48.2 µM) | 35 (≈ 76.6 µM) | 5 (≈ 10.9 µM) | 22 (≈ 48.2 µM) | 28 (≈ 61.3 µM) | 

— patent US20070232577A1, “Synthetic pentacyclic triterpenoids and derivatives of betulinic acid and betulin” (Advanced Life Sciences, Inc., priority 2006, published 2007)
